Assay type in all cases: cell-based
Test [1] has as its system HL60 (Acute promyelocytic leukemia). Kind of test: Cell viability assay using EZ4U viability kit, HL60. As to conditions: Homo sapiens. The method, then:
(§1) For quantification, cells are treated with a tetrazolium salt as indicator of cell viability. […] Then, the solution is analyzed photometrically at 450 nm with 620 nm as reference.
(§2) The final DMSO concentration was 0.5%. […] Then, wells were filled with 20 μl substrate solution for 2 to 4 hours and analyzed.
(§3) Cell viability was calculated relative to DMSO control for data comparison. IC50 values (50% inhibition of cell growth) were determined with GraphPad Prism® (Version 4.03) using nonlinear regression (sigmoidal dose-response with variable slope).

For test [2], the system named is CCRF-CEM (T-cell acute lymphoblastic leukemia). As to the kind of experiment: Cell viability assay using EZ4U viability kit, CCRF-CEM. Particulars: Homo sapiens. The method, then: as §1, §2, §3
In test [3] the test system is Jurkat (T-cell acute lymphoblastic leukemia). As to the kind of experiment: Cell viability assay using EZ4U viability kit, Jurkat. As to conditions: Homo sapiens. The method, then: as §1, §2, §3
The subject of test [4] is SU-DHL-6 (Non Hodgkin's lymphoma). Kind of test: Cell viability assay using EZ4U viability kit, SU-DHL-6. Particulars: Homo sapiens. The protocol:
as §1, §2, §3

The subject of the next test is melanoma cell line 518A2. As to the kind of experiment: Cell proliferation assay using crystal violet, 518A2. As to conditions: for IC50: Homo sapiens, 518A2, crystal violet assay, n = 3, 48 h incubation. The method, then: For quantification, cells are treated with crystal violet, a dye that stains proteins. After washing away of excess dye, the remaining crystal violet is dissolved in a sodium citrate solution. The solution is analyzed photometrically at 590 nm. The optical density of this solution depends on the concentration of crystal violet and therefore on the amount of cells. […] To reduce effects of evaporation, only the inner 60 wells of 96-well plates (coated with 0.1% gelatine solution for studies with HUVEC) were used for experiments.
Cells were seeded at a density of 5 000 cells per well in 100 μl growth medium (HUVEC) or 20 000 (HCT116), 15 000 (SW480 and 518A2) or 10 000 (HT29) cells per well in 200 μl growth medium in 55 wells per plate. 5 wells were filled with medium only. Additionally, a 96-well plate with cells in 12 wells and medium in 6 wells was prepared as T0-plate. The next day, additional 98 μl of growth medium were added in every well (only HUVEC).
Cells were treated with 2 μl of the working solution 24 h after seeding. Final compound concentrations in the well were 10 μM for the first round of screening. The final DMSO concentration was 0.5%. […] After finishing the addition of compounds, the T0-plate was stained with crystal violet for giving the cell density at time point zero. Before staining, the growth medium was poured away. Wells were filled with 50 μl crystal violet solution for 10 min. Then the staining solution was washed away with water. Since crystal violet is environmentally hazardous the waste was collected and disposed in an appropriate manner. After air drying of the plates the crystal violet on the cells was dissolved in 100 μl of sodium citrate solution, and the absorption was measured with a plate reader at 590 nm.
Mean values were corrected with the absorption of stained medium and the corrected absorption of T0 cells. Cell growth was calculated relative to DMSO control for data comparison. IC50 values (50% inhibition of cell growth) were determined with GraphPad Prism® (Version 4.03) using nonlinear regression (sigmoidal dose-response with variable slope).
Compounds showing an inhibition of proliferation of more than 50% at a concentration of 10 μM were defined as active, and their IC50-values were determined.

For test [5], the system named is SU-DHL-9 (Non Hodgkin's lymphoma). Kind of test: Cell viability assay using EZ4U viability kit, SU-DHL-9. The method, then: as §1, §2, §3
Test [6] relates to chronic lymphocytic leukemia (CLL) cells in co-culture with stromal cells. Kind of test: Co-culture model of primary CLL cells and stromal cells (CellTiter-Blue viability). Particulars: 48 h incubation; mean of 5 patients; FIG. 7. From the text:
FIG. 7: […] Data points represent the arithmetic mean of 5 patients calculated in relation to the control. […] The final DMSO concentration was 0.5%. […] In many tumors, the microenvironment plays a major role for the survival of malignant cells. In chronic lymphocytic leukemia (CLL), it has been shown that interaction with the microenvironment, among other things, promotes the survival of tumor cells during chemotherapy. Thus, co-culture models have been developed which better reflect the in vivo situation. The inventors used such a pre-clinical model for drug incubation to study the effect of stromal cells on viability.

Test [7] concerns CLL cell lines MEC-1 and MEC-2. Kind of test: Annexin V-FITC / propidium iodide staining, apoptosis in CLL cell lines. As to conditions: MEC-1 and MEC-2; 24 and 48 hours incubation; FIG. 4. The method, then:
Apoptosis was detected using propidium iodide/Annexin V FACS staining (Bender MedSystems).
Annexin V binds to phosphatidylserine which is exposed at the cell surface during execution of apoptosis. First, cells were seeded out at a density of 1.5 to 2.5 million cells per well in 12 well plates and then growth medium was added to each well to get a final volume of 2.5 ml. Compounds to be tested were diluted with medium from a 10 mM stock solution in DMSO to get different concentrations and cells were treated with 25 μl of these solutions. The final DMSO concentration was 0.5%. All treatments and controls were performed twice. Cells were incubated at 37° C. and 5% CO2 for 24 h and 48 h. Then, growth medium was removed by centrifugation, the supernatant discarded and 200 μl of an Annexin V solution were added. After 10 minutes in the dark, cells were washed once with Annexin buffer and the solution removed by centrifugation. The supernatant was discarded again and cells were suspended in 200 μl of a propidium iodide solution. Cells were measured by flow cytometry with a total of 10 000 events. Data were analyzed with CellQuest Pro™.
Compounds 1 and 22 were also tested on the CLL cell lines MEC-1 and MEC-2 in comparison with fludarabine and cyclophosphamide, two compounds used in the treatment of hematological malignancies (MEC-1 is a fludarabine-resistant cell line).

Another test relates to hematological cell lines. Kind of test: Viability assay in cell lines, summary of Table 4. As to conditions: after 48 hours in most of the cell lines, read-out: IC50-values obtained by the viability assay in cell lines. The protocol: as §1, §2, §3
Test [8] has as its system K562 (Chronic myeloid leukemia). As to the kind of experiment: Cell viability assay using EZ4U viability kit, K562. As to conditions: Homo sapiens. The method, then: as §1, §2, §3
Where [9] appears, read: HL-60, 24 h incubation, read-out: IC50 (nM) HL60 24 h.
The mark [10] stands for this setting: HL-60, 48 h incubation, read-out: IC50 (nM) HL60 48 h.
The mark [11] stands for this setting: 24 h incubation, read-out: IC50 (nM) CCRF-CEM 24 h.
Where [12] appears, read: 48 h incubation, read-out: IC50 (nM) CCRF-CEM 48 h.
Setting [13] is: 24 h incubation, read-out: IC50 (nM) Jurkat 24 h (converted).
Where [14] appears, read: 48 h incubation, read-out: IC50 (nM) Jurkat 48 h (converted).
The mark [15] stands for this setting: 24 h incubation, read-out: IC50 (nM) SU-DHL-6 24 h.
The mark [16] stands for this setting: 48 h incubation, read-out: IC50 (nM) SU-DHL-6 48 h.
[17] abbreviates: 24 h incubation, read-out: IC50 (nM) SU-DHL-9 24 h.
[18] abbreviates: 48 h incubation, read-out: IC50 (nM) SU-DHL-9 48 h.
Where [19] appears, read: 24 h incubation, read-out: IC50 (nM) K562 24 h (converted).
Where [20] appears, read: 48 h incubation, read-out: IC50 (nM) K562 48 h (converted).

Usually IC50 stands for the concentration that gives 50% inhibition.

Where two headings read alike, the source gives them in different places.

For `COc1ccccc1/C=C/C=C/C(=O)c1cc(OC)c(OC)c(OC)c1` [Compound 1, 5-(2-Methoxyphenyl)-1-(3′,4′,5′-trimethoxyphenyl)-2,4-pentadiene-1-one], the IC50 in [1] (setting [9]) was 490 nM; in test [1] (setting [10]), 170 nM; in test [2] (setting [11]) it was 70 nM; in test [2] (setting [12]), 70 nM; in test [3] (setting [13]), 1110 nM; in [3] (setting [14]) it was 630 nM. For the same molecule, the IC50 in test [4] (setting [15]) was 180 nM; in test [4] (setting [16]), 20 nM; in the test on melanoma cell line 518A2, 150 nM; in test [5] (setting [17]) it was 60 nM; in test [5] (setting [18]), 50 nM; in the test on hematological cell lines, about 10 nM. For the same molecule, the results for the IC50 in [8] (setting [19]) and in test [8] (setting [20]) were 20900 nM and 50 nM, respectively. Further, in [6], the “viability of CLL cells in co-culture with stromal cells” value is “higher cytotoxicity than the control drugs fludarabine and cyclophosphamide”. Further, the “apoptosis induction compared with fludarabine and cyclophosphamide” value in test [7] was “induced apoptosis in a lower concentration range than fludarabine and cyclophosphamide”.

Consider `CCOc1ccccc1C(=O)/C=C/c1ccc2ccccc2c1` [Compound 22, 3-(2-Naphthyl)-1-(2′-ethoxyphenyl)-2-propene-1-one], for which the IC50 in [1] (setting [9]) is 10 nM; in [1] (setting [10]), 20 nM; in [2] (setting [11]) it was 40 nM; in [2] (setting [12]), 40 nM; in test [3] (setting [13]), 7840 nM; in test [3] (setting [14]) it was 7210 nM. Besides, the IC50 is 10 nM in test [4] (setting [15]); 40 nM in test [4] (setting [16]); 40 nM in the test with melanoma cell line 518A2; 30 nM in test [5] (setting [17]); 50 nM in test [5] (setting [18]); about 10 nM with hematological cell lines. In addition, the IC50 is 17700 nM in test [8] (setting [19]) and 13700 nM in test [8] (setting [20]). In the test with melanoma cell line 518A2 (melanoma cell line 518A2, ratio of IC50 values), the “potency relative to cisplatin” value is “about 250 times”. For the same molecule, the “viability of CLL cells in co-culture with stromal cells” value in [6] is “higher cytotoxicity than the control drugs fludarabine and cyclophosphamide”. In addition, the “apoptosis induction compared with fludarabine and cyclophosphamide” value in test [7] is “induced apoptosis in a lower concentration range than fludarabine and cyclophosphamide”.

The record behind these values is patent publication US20130123367A1, “VINYLOGOUS CHALCONE DERIVATIVES AND THEIR MEDICAL USE” (MEDIZINISCHE UNIVERSITAT WIEN, priority 2010, published 2013).
